One assay concerns the target HIV integrase (Human immunodeficiency virus type 1 group M subtype B, UniProt P04585). The experiment in a line: integrase strand transfer assay (STA). Format: biochemical. The conditions noted are these: integrase strand transfer; read-out: IC50 in the STA assay.
The test system of the next assay is HXB2 virus. In words: microbe, parasite or virus in culture. Format: cell-based, HIV. The conditions noted are these: Human immunodeficiency virus 1, HXB2, HeLaP4-2, read-out: antiviral IC50 (SCIA-B). The method, then:
An assay for measuring the inhibition of acute HIV infection with HeLa P4-2 cells in a single cycle infectivity assay (SCIA-A) was conducted in accordance with Joyce, J. G., et al., J. Biol. Chem., 2002, 277, 45811, Hazuda, D. J. et al., Science, 2000, 287, 646, and Kimpton, J. et al, J. Virol. 1992, 66, 2232. Infectious virus was produced by transfecting 293T cells with HIV proviral DNA in which the integrase gene was derived from a IIIB isolate and the remainder of the HIV genome was derived from the NL4-3 isolate.
This assay B for measuring the inhibition of acute HIV infection with HeLa P4-2 cells in a single cycle infectivity assay (SCIA-B) is essentially the same as Assay A described above, except that HXB2 virus is employed instead of the IIIb isolate.

In the case of `O=c1c(-c2ccc(Br)cc2)c(O)c2cccnc2n1O` [Example 38, 3-(4-Bromophenyl)-1,4-dihydroxy-1,8-naphthyridin-2(1H)-one], the IC50 – broadly, the concentration at which inhibition is half-maximal – on HIV integrase is below 50 µM; with HXB2 virus, below 100 µM.

`CN1CCN(c2cc(=O)n(O)c3ncccc23)CC1=O` [Example 148, 1-hydroxy-4-(4-methyl-3-oxo-1-piperazinyl)-1,8-naphthyridin-2 (1H-one)]: the 50% inhibitory concentration (IC50) is below 50 µM on HIV integrase and below 100 µM in the assay with HXB2 virus.

Consider `NCc1cccc(CNC(=O)Cc2c(O)c3cccnc3n(O)c2=O)c1` [Example 224], for which the IC50 on HIV integrase is below 50 µM; in the assay with HXB2 virus, below 100 µM.

On to `O=c1c(-c2ccccc2Cl)c(O)c2cccnc2n1O` [Example 35, 3-(2-Chlorophenyl)-1,4-dihydroxy-1,8-naphthyridin-2(1H)-one], for which the values for the IC50 on HIV integrase and in the assay with HXB2 virus were below 50 µM and below 100 µM, respectively.

Consider `CC(Br)Cc1cnc2c(c1)c(O)c(-c1ccccc1)c(=O)n2O` (centres unmarked) [Example 74, 6-(2-Bromopropyl)-1,4-dihydroxy-3-phenyl-1,8-naphthyridin-2(1H)-one], for which the figures for the IC50 at HIV integrase and with HXB2 virus were below 50 µM and below 100 µM, respectively.

In the case of `NCc1ccc(-c2cccc(Cc3cc(=O)n(O)c4ncccc34)c2)cc1` [Example 232, 4-{[4′-(aminomethyl)biphenyl-3-yl]methyl}-1-hydroxy-1,8-naphthyridin-2(1H)-one], the half-maximal inhibitory concentration (IC50) on HIV integrase was below 50 µM; with HXB2 virus it was below 100 µM.

For `CCOC(=O)Cc1c(O)c2cccnc2n(O)c1=O` [Example 223, Ethyl (1,4-dihydroxy-2-oxo-1,2-dihydro-1,8-naphthyridin-3-yl)acetate], the IC50 was below 50 µM on HIV integrase and below 100 µM in the assay with HXB2 virus.

Regarding `CC(c1ccc(-c2cccc(-c3cc(=O)n(O)c4ncccc34)c2)cc1)N1CCOCC1` (centres unmarked) [Example 178, 1-hydroxy-4-[4′-(1-morpholin-4-ylethyl)biphenyl-3-yl]-1,8-naphthyridin-2(1H)-one], the IC50 on HIV integrase was below 50 µM; in the assay on HXB2 virus, below 100 µM.

With `CC(=O)c1c(O)c2cccnc2n(O)c1=O` [Example 93, 3-acetyl-1,4-dihydroxy-1,8-naphthyridin-2(1H)-one], the IC50 at HIV integrase was above 50 µM; with HXB2 virus, below 100 µM.

`O=c1cc(-c2cnc3[nH]ccc3c2)c2cccnc2n1O` [Example 245, 1-hydroxy-4-(1H-pyrrolo[2,3-b]pyridin-5-yl)-1,8-naphthyridin-2(1H)-one bistrifluoroacetate]: the 50% inhibitory concentration (IC50) was below 50 µM at HIV integrase and below 100 µM with HXB2 virus.

For the compound `O=c1c(-c2ccccc2)c(O)c2cc(-c3ccccc3)cnc2n1O` [Example 51, 1,4-Dihydroxy-3,6-diphenyl-1,8-maphthyridin-2(1H)-one], the results for the IC50 on HIV integrase and in the assay with HXB2 virus were below 50 µM and below 100 µM, respectively.

For `O=c1cc(NC2CCN(Cc3ccccc3)CC2)c2cccnc2n1O` [Example 108, 4-[(1-Benzylpiperidin-4-yl)amino]-1-hydroxy-1,8-naphthyridin-2(1H)-one], the IC50 at HIV integrase was below 50 µM; in the assay with HXB2 virus, below 100 µM.

In the case of `O=c1c(-c2ccccc2)c(O)c2cc(/C=C/c3ccccc3)cnc2n1O` [Example 55, 1,4-Dihydroxy-3-phenyl-6-[(E)-2-phenylvinyl]-1,8-naphthyridin-2(1H)-one], the results for the concentration for half-maximal inhibition (IC50) on HIV integrase and in the assay on HXB2 virus were below 50 µM and below 100 µM, respectively.

Take `CN1C(=O)c2c(c3cccnc3n(O)c2=O)NC1c1cccc(CN2CCOCC2)c1` (centres unmarked) [Example 219, 6-Hydroxy-3-methyl-2-[3-(morpholin-4-ylmethyl)phenyl]-2,3-dihydropyrimido[5,4-c]-1,8-naphthyridine-4,5(1H, 6H)dione]: the IC50 on HIV integrase was below 50 µM; in the assay with HXB2 virus, below 100 µM.

Turning to `COc1cccc(NC(=O)c2c(O)c3cccnc3n(O)c2=O)c1` [Example 12, 1,4-Dihydroxy-N-(3-methoxyphenyl)-2-oxo-1,2-dihydro-1,8-naphthyridine-3-carboxamide], the IC50 is below 50 µM at HIV integrase and below 100 µM in the assay on HXB2 virus.

Consider `CN(C)CCCN1CCN(Cc2cccc(-c3cc(=O)n(O)c4ncccc34)c2)CC1` [Example 212, 4-[3-({4-[3-(dimethylamino)propyl]-1-piperazinyl}methyl)phenyl]-1-hydroxy-1,8-naphthyridin-2(1H-one)], for which the IC50 at HIV integrase was below 50 µM; with HXB2 virus, below 100 µM.

Turning to `O=c1c(Cc2ccccc2)c(O)c2cc(-c3ccccc3)cnc2n1O` [Example 67, 3-Benzyl-1,4-dihydroxy-6-phenyl-1,8-naphthyridin-2(1H)-one], the IC50 was below 50 µM on HIV integrase and below 100 µM in the assay on HXB2 virus.

As to `O=C1N[C@H](c2ccccc2)[C@H](c2ccccc2)Nc2c1c(=O)n(O)c1ncccc21` [Example 170, (2S, 3R)-7-hydroxy-2,3-diphenyl-3,4-dihydro-1H-[1,4]diazepino[6,5-c]-1,8-naphthyridine-5,6(2H, 7H)-dione], the values for the IC50 on HIV integrase and with HXB2 virus were below 50 µM and below 100 µM, respectively.

In the case of `O=c1cc(-c2cccc(CN3CCN(Cc4ccccc4)CC3)c2)c2cccnc2n1O` [Example 206, 4-{3-[(4-benzyl-1-piperazinyl)methyl]phenyl}-1-hydroxy-1,8-naphthyridin-2(1H-one)], the half-maximal inhibitory concentration (IC50) at HIV integrase is below 50 µM; in the assay with HXB2 virus, below 100 µM.

For the compound `CCOC(=O)c1c(O)c2c(Cc3cccc(-c4cccc(CN)c4)c3)ccnc2n(O)c1=O` [Example 249, ethyl 5-{[3′-(aminomethyl)biphenyl-3-yl]methyl}-1,4-dihydroxy-2-oxo-1,2-dihydro-1,8-naphthyridine-3-carboxylate], the IC50 is below 50 µM on HIV integrase and below 100 µM in the assay on HXB2 virus.

Turning to `CCOC(=O)N1CCC(Nc2cc(=O)n(O)c3ncccc23)CC1` [Example 109, Ethyl 4-[(1-hydroxy-2-oxo-1,2-dihydro-1,8-naphthyridin-4-yl)amino]piperidine-1-carboxylate], the concentration for half-maximal inhibition (IC50) is below 50 µM at HIV integrase and below 100 µM in the assay with HXB2 virus.

As to `O=C(NC1CC1)c1c(O)c2cccnc2n(O)c1=O` [Example 6, N-Cyclopropyl-1,4-dihydroxy-2-oxo-1,2-dihydro-1,8-naphthyridine-3-carboxamide], the 50% inhibitory concentration (IC50) on HIV integrase is below 50 µM; in the assay on HXB2 virus it was below 100 µM.

As for `O=C(c1cccc(-c2cc(=O)n(O)c3ncccc23)c1)N1CCCC1` [Example 195, 1-hydroxy-4-[3-(pyrrolidin-1-ylcarbonyl)phenyl]-1,8-naphthyridin-2(1H)-one], the IC50 at HIV integrase is below 50 µM; with HXB2 virus, below 100 µM.

As to `O=C(Cc1ccccc1)Nc1cc(=O)n(O)c2ncccc12` [Example 101, N-(1-Hydroxy-2-oxo-1,2-dihydro-1,8-naphthyridin-4-yl)-2-phenylacetamide], the values for the IC50 at HIV integrase and with HXB2 virus were below 50 µM and below 100 µM, respectively.

On to `O=c1cc(N2CCC[C@@H]2CF)c2cccnc2n1O` [Example 117, 4-[(2R)-2-(fluoromethyl)pyrrolidin-1-yl]-1-hydroxy-1,8-naphthyridin-2(1H)-one], for which the IC50 is below 50 µM on HIV integrase and below 100 µM with HXB2 virus.

`O=C(Nc1ccccc1)c1c(O)c2cccnc2n(O)c1=O` [Example 20, 1,4-Dihydroxy-2-oxo-N-phenyl-1,2-dihydro-1,8-naphthyridine-3-carboxamide]: the results for the IC50 at HIV integrase and with HXB2 virus were below 50 µM and below 100 µM, respectively.

Turning to `O=c1cc(NC2CCN(Cc3ccccc3)C2)c2cccnc2n1O` (centres unmarked) [Example 112, 4-[(1-Benzylpyrrolidin-3-yl)amino]-1-hydroxy-1,8-naphthyridin-2(1H)-one], the IC50 was below 50 µM on HIV integrase and below 100 µM in the assay with HXB2 virus.

As for `NCc1cccc(-c2cccc(-c3cc(=O)n(O)c4ncccc34)c2)c1` [Example 204, 4-[3′-(aminomethyl)biphenyl-3-yl]-1-hydroxy-1,8-naphthyridin-2(1H)-one], the IC50 on HIV integrase is below 50 µM; in the assay with HXB2 virus it was below 100 µM.

As for `O=c1cc(-c2ccc3ncccc3c2)c2cccnc2n1O` [Example 184, 1-hydroxy-4-quinolin-6-yl-1,8-naphthyridin-2(1H)-one], the IC50 is below 50 µM at HIV integrase and below 100 µM in the assay on HXB2 virus.

As to `O=c1c(-c2ccccc2)c(O)c2cccnc2n1O` [Example 30, 1,4-Dihydroxy-3-phenyl-1,8-naphthyridin-2-(1H)-one], the 50% inhibitory concentration (IC50) on HIV integrase was below 50 µM; in the assay on HXB2 virus it was below 100 µM.

In the case of `CCOC(=O)c1c(O)c2cc(-c3ccccc3OC)cnc2n(O)c1=O` [Example 61, Ethyl 1,4-dihydroxy-6-(2-methoxyphenyl)-2-oxo-1,2-dihydro-1,8-naphthyridine-3-carboxylate], the IC50 at HIV integrase was below 50 µM; in the assay with HXB2 virus, below 100 µM.

`O=c1c(-c2ccc(F)cc2)c(O)c2cccnc2n1O` [Example 34, 3-(4-Fluorophenyl)-1,4-dihydroxy-1,8-naphthyridin-2(1H)-one]: the IC50 was below 50 µM at HIV integrase and below 100 µM in the assay on HXB2 virus.

Take `O=c1c(-c2ccccc2)c(O)c2cc(Br)cnc2n1O` [Example 47, 6-Bromo-1,4-dihydroxy-3-phenyl-1,8-naphthyridin-2(1H)-one]: the results for the IC50 at HIV integrase and with HXB2 virus were below 50 µM and below 100 µM, respectively.

On to `CCOC(=O)c1c(N2CCc3ccc(-c4cccc(F)c4)cc3C2)c2cccnc2n(O)c1=O` [Example 259, ethyl 4-[7-(3-fluorophenyl)-3,4-dihydroisoquinolin-2(1H)-yl]-1-hydroxy-2-oxo-1,2-dihydro-1,8-naphthyridine-3-carboxylate], for which the IC50 on HIV integrase was above 50 µM; in the assay with HXB2 virus it was below 100 µM.

The record behind these values is patent publication US20100056516A1 (priority 2006, published 2010).
